{"source": "ChEMBL document CHEMBL1201862", "about": "“PubChem BioAssay data set” (2004)", "test_in_all_cases": "DTP human tumour cell line panel, 48 h", "key": {"786-0": {"system": "786-0"}, "A498": {"system": "A498"}, "A549": {"system": "A549"}, "ACHN": {"system": "ACHN"}, "BT-549": {"system": "BT-549"}, "CAKI-1": {"system": "CAKI-1"}, "COLO 205": {"system": "COLO 205"}, "DU-145": {"system": "DU-145"}, "EKVX": {"system": "EKVX"}, "HCT-116": {"system": "HCT-116"}, "HCT-15": {"system": "HCT-15"}, "HL-60": {"system": "HL-60"}, "HOP-62": {"system": "HOP-62"}, "HOP-92": {"system": "HOP-92"}, "HT-29": {"system": "HT-29"}, "Hs-578T": {"system": "Hs-578T"}, "IGROV-1": {"system": "IGROV-1"}, "K562": {"system": "K562"}, "KM12": {"system": "KM12"}, "LOX IMVI": {"system": "LOX IMVI"}, "M14": {"system": "M14"}, "MCF7": {"system": "MCF7"}, "MDA-MB-231": {"system": "MDA-MB-231"}, "MDA-MB-435": {"system": "MDA-MB-435"}, "MDA-N": {"system": "MDA-N"}, "MOLT-4": {"system": "MOLT-4"}, "Malme-3M": {"system": "Malme-3M"}, "NCI-H226": {"system": "NCI-H226"}, "NCI-H460": {"system": "NCI-H460"}, "NCI-H522": {"system": "NCI-H522"}, "NCI/ADR-RES": {"system": "NCI/ADR-RES"}, "OVCAR-3": {"system": "OVCAR-3"}, "OVCAR-4": {"system": "OVCAR-4"}, "OVCAR-5": {"system": "OVCAR-5"}, "OVCAR-8": {"system": "OVCAR-8"}, "PC-3": {"system": "PC-3"}, "RPMI-8226": {"system": "RPMI-8226"}, "RXF 393": {"system": "RXF 393"}, "SF-268": {"system": "SF-268"}, "SF-295": {"system": "SF-295"}, "SF-539": {"system": "SF-539"}, "SK-MEL-28": {"system": "SK-MEL-28"}, "SK-MEL-2": {"system": "SK-MEL-2"}, "SK-MEL-5": {"system": "SK-MEL-5"}, "SK-OV-3": {"system": "SK-OV-3"}, "SN12C": {"system": "SN12C"}, "SNB-19": {"system": "SNB-19"}, "SNB-75": {"system": "SNB-75"}, "SR": {"system": "SR"}, "SW-620": {"system": "SW-620"}, "T47D": {"system": "T47D"}, "TK-10": {"system": "TK-10"}, "U-251": {"system": "U-251"}, "UACC-257": {"system": "UACC-257"}, "UACC-62": {"system": "UACC-62"}, "UO-31": {"system": "UO-31"}}, "note": "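Growth conditions: 96-well plates. Treatment: test compound, 48 hours, 5 concentrations. Analysis: linear interpolation between bracketing concentrations; unreached endpoints set to highest concentration. At the GI50, growth is halved.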 Activity calls are given as the source filed them. No stated cut-off is given here; in the data, active = GI50 up to about 1.1 µM and inactive = higher.", "data": [{"smiles": "Cc1cc(C2(c3cc(C)c(O)c(C(=O)O)c3)OS(=O)(=O)c3ccccc32)cc(C(=O)O)c1O", "values": [{"measurement": "GI50", "setting": "786-0", "value": "> 100 µM (inactive)"}, {"measurement": "GI50", "setting": "A498", "value": "> 100 µM (inactive)"}, {"measurement": "GI50", "setting": "A549", "value": "> 100 µM (inactive)"}, {"measurement": "GI50", "setting": "ACHN", "value": "> 100 µM (inactive)"}, {"measurement": "GI50", "setting": "BT-549", "value": "> 100 µM (inactive)"}, {"measurement": "GI50", "setting": "CAKI-1", "value": "> 100 µM (inactive)"}, {"measurement": "GI50", "setting": "COLO 205", "value": "> 100 µM (inactive)"}, {"measurement": "GI50", "setting": "DU-145", "value": "> 100 µM (inactive)"}, {"measurement": "GI50", "setting": "EKVX", "value": "> 100 µM (inactive)"}, {"measurement": "GI50", "setting": "HCT-116", "value": "> 100 µM (inactive)"}, {"measurement": "GI50", "setting": "HCT-15", "value": "> 100", "unit": "µM"}, {"measurement": "GI50", "setting": "HL-60", "value": "> 100 µM (inactive)"}, {"measurement": "GI50", "setting": "HOP-62", "value": "> 100 µM (inactive)"}, {"measurement": "GI50", "setting": "HOP-92", "value": "> 100 µM (inactive)"}, {"measurement": "GI50", "setting": "HT-29", "value": "> 100 µM (inactive)"}, {"measurement": "GI50", "setting": "Hs-578T", "value": "> 100 µM (inactive)"}, {"measurement": "GI50", "setting": "IGROV-1", "value": "> 100 µM (inactive)"}, {"measurement": "GI50", "setting": "K562", "value": "> 100 µM (inactive)"}, {"measurement": "GI50", "setting": "KM12", "value": "> 100 µM (inactive)"}, {"measurement": "GI50", "setting": "LOX IMVI", "value": "> 100 µM (inactive)"}, {"measurement": "GI50", "setting": "M14", "value": "> 100 µM (inactive)"}, {"measurement": "GI50", "setting": "MCF7", "value": "> 100 µM (inactive)"}, {"measurement": "GI50", "setting": "MDA-MB-231", "value": "> 100 µM (inactive)"}, {"measurement": "GI50", "setting": "MDA-MB-435", "value": "> 100 µM (inactive)"}, {"measurement": "GI50", "setting": "MDA-N", "value": "> 100 µM (inactive)"}, {"measurement": "GI50", "setting": "MOLT-4", "value": "0.205 µM (active)"}, {"measurement": "GI50", "setting": "Malme-3M", "value": "> 100 µM (inactive)"}, {"measurement": "GI50", "setting": "NCI-H226", "value": "> 100 µM (inactive)"}, {"measurement": "GI50", "setting": "NCI-H460", "value": "> 100 µM (inactive)"}, {"measurement": "GI50", "setting": "NCI-H522", "value": "> 100 µM (inactive)"}, {"measurement": "GI50", "setting": "NCI/ADR-RES", "value": "> 100 µM (inactive)"}, {"measurement": "GI50", "setting": "OVCAR-3", "value": "> 100 µM (inactive)"}, {"measurement": "GI50", "setting": "OVCAR-4", "value": "> 100 µM (inactive)"}, {"measurement": "GI50", "setting": "OVCAR-5", "value": "> 100 µM (inactive)"}, {"measurement": "GI50", "setting": "OVCAR-8", "value": "> 100 µM (inactive)"}, {"measurement": "GI50", "setting": "PC-3", "value": "> 100 µM (inactive)"}, {"measurement": "GI50", "setting": "RPMI-8226", "value": "> 100 µM (inactive)"}, {"measurement": "GI50", "setting": "RXF 393", "value": "> 100 µM (inactive)"}, {"measurement": "GI50", "setting": "SF-268", "value": "> 100 µM (inactive)"}, {"measurement": "GI50", "setting": "SF-295", "value": "> 100 µM (inactive)"}, {"measurement": "GI50", "setting": "SF-539", "value": "> 100 µM (inactive)"}, {"measurement": "GI50", "setting": "SK-MEL-28", "value": "> 100 µM (inactive)"}, {"measurement": "GI50", "setting": "SK-MEL-2", "value": "> 100 µM (inactive)"}, {"measurement": "GI50", "setting": "SK-MEL-5", "value": "> 100 µM (inactive)"}, {"measurement": "GI50", "setting": "SK-OV-3", "value": "> 100 µM (inactive)"}, {"measurement": "GI50", "setting": "SN12C", "value": "> 100 µM (inactive)"}, {"measurement": "GI50", "setting": "SNB-19", "value": "> 100 µM (inactive)"}, {"measurement": "GI50", "setting": "SNB-75", "value": "> 100 µM (inactive)"}, {"measurement": "GI50", "setting": "SR", "value": "> 100 µM (inactive)"}, {"measurement": "GI50", "setting": "SW-620", "value": "> 100 µM (inactive)"}, {"measurement": "GI50", "setting": "T47D", "value": "> 100 µM (inactive)"}, {"measurement": "GI50", "setting": "TK-10", "value": "> 100 µM (inactive)"}, {"measurement": "GI50", "setting": "U-251", "value": "> 100 µM (inactive)"}, {"measurement": "GI50", "setting": "UACC-257", "value": "> 100 µM (inactive)"}, {"measurement": "GI50", "setting": "UACC-62", "value": "> 100 µM (inactive)"}, {"measurement": "GI50", "setting": "UO-31", "value": "> 100 µM (inactive)"}]}]}
